Reference: patent US7288567B2, “Inhibitors of histone deacetylase” (Methylgene Inc., priority 2000, dated 2007)
Counter-ions that a name gives are not always drawn.

What follows are molecules tested against T1, recombinant human HDAC-1 enzyme (rHDAC-1) (Homo sapiens, UniProt Q13547) (assay: Histone deacetylase inhibition, recombinant human HDAC-1). Details: not given.
T1 construct: made in house; host or cells: Baculovirus insect cell expression system
T1 sequence (Q13547 whole entry): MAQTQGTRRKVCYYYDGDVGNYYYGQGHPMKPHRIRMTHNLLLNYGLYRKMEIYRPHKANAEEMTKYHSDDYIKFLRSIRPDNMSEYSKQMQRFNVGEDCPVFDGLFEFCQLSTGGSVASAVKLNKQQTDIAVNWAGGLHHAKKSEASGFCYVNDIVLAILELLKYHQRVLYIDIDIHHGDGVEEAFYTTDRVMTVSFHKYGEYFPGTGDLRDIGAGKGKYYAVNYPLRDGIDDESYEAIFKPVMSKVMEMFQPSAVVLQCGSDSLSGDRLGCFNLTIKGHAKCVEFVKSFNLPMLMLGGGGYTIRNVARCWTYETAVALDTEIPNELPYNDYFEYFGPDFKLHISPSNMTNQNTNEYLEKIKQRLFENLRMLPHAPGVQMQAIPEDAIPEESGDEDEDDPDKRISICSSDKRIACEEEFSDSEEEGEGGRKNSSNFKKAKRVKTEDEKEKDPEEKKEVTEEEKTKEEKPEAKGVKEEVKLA
Type: biochemical
Procedure: The reaction was stopped by adding acetic acid (0.04 M, final concentration) and HCl (250 mM, final concentration). The mixture was extracted with ethyl acetate and the released [^3H]-acetic acid was quantified by scintillation counting. For inhibition studies, the enzyme was preincubated with compounds at 4° C. for 30 minutes prior to initiation of the enzymatic assay. IC50 values for HDAC enzyme inhibitors were determined by performing dose response curves with individual compounds and determining the concentration of inhibitor producing fifty percent of the maximal inhibition.
In the case of O=C(CCCCCNCc1ccc2ccccc2c1)NO [Compound 223, N-Hydroxy-6-N-(2-naphthylmethylamino)hexanamide trifluoroacetate], the IC50 is reported as 2000 nM.

Same assay, conditions: cloned recombinant human HDAC-1, Baculovirus insect cell expression; read-out: rHDAC-1 IC50
Molecule O=C(CCCCSCC(=O)c1ccc2ccccc2c1)NO [Compound 226a, N-Hydroxy-5-(2-naphthoylmethylsulfanyl)pentanamide] has an IC50 of 7 nM.
In the case of Nc1ccccc1NC(=O)CCCCCN1Cc2ccccc2C1=O [Compound 248, N-(2-Aminophenyl)-6-[2-(1-oxo-1,3-dihydro-isoindolyl)]hexanamide], the IC50 is reported as 4000 nM.
In the case of CN(CCCCC(=O)NO)CCc1ccc2ccccc2c1 [Compound 216, N-Hydroxy-5-N-[2-(2-naphthylethyl)-methylamino]pentanamide], the IC50 is reported as 300 nM.
Work on Nc1ccccc1NC(=O)CCCCN1C(=O)c2ccccc2C1=O [Compound 243b, N-(2-Aminophenyl)-5-(N-phthaloyl)pentanamide] yielded an IC50 of 99000 nM.
For Nc1ccccc1NC(=O)CCCCCCC(=O)c1cccc(-c2ccccc2)c1 [Compound 132, N-(2-Aminophenyl)-7-[(3-biphenyl)carbonyl]heptanamide], the IC50 was 800 nM.
O=C(CCCCCC(=O)c1ccc(-c2ccccc2)cc1)Nc1n[nH]c(=S)s1 [Compound 128, N-(4,5-Dihydro-5-thioxo-1,3,4-thiadiazol-2-yl)-6-[(4-biphenyl)carbonyl]hexanamide] was tested, and the IC50 was 19000 nM.
In the case of O=C(CCCCSCC(=O)c1ccc(-c2ccccc2)cc1)NO [Compound 226b, N-Hydroxy-5-(4-biphenylcarbonylmethanesulfanyl)pentanamide], the IC50 is reported as 6 nM.
Molecule CN(CCCCCC(=O)Nc1ccccc1N)Cc1ccc2ccccc2c1 [Compound 210, N-(2-Aminophenyl)-N-(2-naphthylmethyl-methylamino)hexanamide] has an IC50 of 10000 nM.
With O=C(CCCCS(=O)(=O)CC(=O)c1ccc2ccccc2c1)NO [Compound 229a, N-Hydroxy-5-(2-naphthoylmethylsulfonyl)pentanamide] the IC50 was 1000 nM.
With O=C(CCCCCCC(=O)c1ccc(-c2ccccc2)cc1)Nc1n[nH]c(=S)s1 [Compound 79, N-(4,5-Dihydro-5-thioxo-1,3,4-thiadiazol-2-yl)-7-[(4-biphenyl)carbonyl]-heptanamide] the IC50 was 9000 nM.
Work on COc1ccc(N)c(NC(=O)CCCCCCC(=O)c2ccc(-c3ccccc3)cc2)c1 [Compound 83, N-(3-(4-Amino)anisole)-7-[(4-biphenyl)carbonyl]heptanamide] yielded an IC50 of 25000 nM.
O=C(CCCCCCC(=O)c1cccc(-c2ccccc2)c1)NO [Compound 131, N-Hydroxy-7-[(3-biphenyl)carbonyl]heptanamide] gave an IC50 of 8 nM.
With Nc1ccccc1NC(=O)CCCCCCC(O)c1cccc(-c2ccccc2)c1 (centres unmarked) [Compound 133, N-(2-Aminophenyl)-8-(3-biphenyl)-8-hydroxy-octanamide] the IC50 was 1000 nM.
For Nc1ccccc1NC(=O)CCCCCCC(=O)c1ccc(-c2ccc(CN3CCOCC3)cc2)cc1 [Compound 157, N-(2-Aminophenyl)-7-[4-(4-(N-methylmorpholinyl)phenyl)benzoyl]heptanamide], the IC50 was 4000 nM.
Nc1ccccc1NC(=O)CCCCCN1C(=O)c2cccc3c(Br)ccc(c23)C1=O [Compound 251b, N-(2-Aminophenyl)-6-[2-(6-bromo-1,3-dioxo-1H,3H-benzo[de]isoquinolinyl)]-hexanamide] gave an IC50 of 1000 nM.
Nc1ccccc1NC(=O)CCCCCCN1C(=O)c2ccccc2C1=O [Compound 243c, N-(2-Aminophenyl)-7-(N-phthaloyl)heptanamide] gave an IC50 of 4000 nM.
Work on O=C(CCCCS(=O)(=O)CC(=O)c1ccc(-c2ccccc2)cc1)NO [Compound 229b, N-Hydroxy-5-(4-biphenylcarbonylmethylsulfonyl)pentanamide] yielded an IC50 of 40 nM.
Nc1ccccc1NC(=O)CCCCCN1C(=O)c2ccncc2C1=O [Compound 246b] showed an IC50 of 14000 nM.
For O=C(CCCCCCC(=O)c1ccccc1)Nc1ccccc1O [Compound 86, N-(2-Hydroxyphenyl)-7-(benzoyl)heptanamide], the IC50 was 5000 nM.
Nc1ccccc1NC(=O)CCCCCN1C(=O)c2ccc([N+](=O)[O-])cc2C1=O [Compound 243e, N-(2-Aminophenyl)-6-(5-nitro-N-phthaloyl)hexanamide] gave an IC50 of 12000 nM.
For Nc1ccccc1NC(=O)CCCCCCOc1ccc(-c2ccccc2)cc1 [Compound 234, N-(2-Aminophenyl)-7-(4-biphenyloxy)heptanamide], the IC50 was 1000 nM.
In the case of CC(C)(C)OC(=O)N(CCCCCC(=O)NO)Cc1ccc2ccccc2c1 [Compound 222, N-Hydroxy-6-N-(tert-butoxycarbonyl-2-naphthylmethylamino)hexanamide], the IC50 is reported as 100 nM.
Work on Nc1ccccc1NC(=O)CCCCS(=O)(=O)CC(=O)c1ccc(-c2ccccc2)cc1 [Compound 230b, N-(2-Aminophenyl)-5-(4-biphenylcarbonylmethylsulfonyl)pentanamide] yielded an IC50 of 12000 nM.
With C/C(=C/C(=O)Nc1ccccc1N)CCCCC(=O)c1ccc2ccccc2c1 [Compound 194, (Z)-N-(2-Aminophenyl)-3-methyl-7-(2-naphthoyl)-2-heptenamide] the IC50 was 24000 nM.
For CC(C)(C)OC(=O)N(CCCCCC(=O)Nc1ccccc1N)Cc1ccc2ccccc2c1 [Compound 224, N-(2-Aminophenyl)-6-N-(tert-butoxycarbonyl-2-naphthylmethylamino)-hexanamide], the IC50 was 3000 nM.
Work on CN(CCCCCC(=O)NO)Cc1ccc2ccccc2c1 [Compound 209, N-Hydroxy-N-(2-naphthylmethyl-methylamino)hexanamide] yielded an IC50 of 50 nM.
Nc1ccccc1NC(=O)CCCCCN1C(=O)c2cccnc2C1=O [Compound 246a] showed an IC50 of 5000 nM.
Nc1ccccc1NC(=O)CCCCCC(=O)c1ccc(-c2ccccc2)cc1 [Compound 129, N-(2-Aminophenyl)-6-[(biphenyl)carbonyl]hexanamide] showed an IC50 of 1000 nM.
Work on COc1ccc(-c2ccc(C(=O)CCCCCCC(=O)NO)cn2)cc1OC [Compound 150, N-Hydroxy-7-[5-(2-(3,4-dimethoxyphenyl)pyridyl)carbonyl]heptanamide] yielded an IC50 of 50 nM.
Work on Nc1ccccc1NC(=O)CCCCCCC(=O)c1ccccc1 [Compound 53a, N-(2-Aminophenyl)-7-benzoylheptanamide] yielded an IC50 of 600 nM.
O=C(CCCCCCC(=O)c1ccc(N2CCNCC2)cc1)NO [Compound 138c2] gave an IC50 of 30 nM.
In the case of CN(CCCCC(=O)NO)Cc1ccc2ccccc2c1 [Compound 213, N-Hydroxy-5-N-(2-naphthylmethyl-methylamino)pentanamide], the IC50 is reported as 3000 nM.
With CC(C)(C)OC(=O)N1CCN(c2ccc(C(=O)CCCCCCC(=O)NO)cc2)CC1 [Compound 138c1, N-Hydroxy-7-[4-(1-(4-tert-butyloxycarbonylpiperazinyl))benzoyl]heptanamide] the IC50 was 30 nM.
With O=C(CCCCCN(Cc1ccccc1)Cc1ccc2ccccc2c1)NO [Compound 220b, N-Hydroxy-6-N-(Benzyl-2-naphthylmethylamino)hexanamide] the IC50 was 100 nM.
In the case of CON=C(CCCCCCC(=O)Nc1ccccc1N)c1cccc(-c2ccccc2)c1 (mixture of isomers) [Compound 135, N-(2-Aminophenyl)-8-(E)-O-methyl-oximino-8-(3-biphenyl)octanamide], the IC50 is reported as 2000 nM.
For O=C(CCCCCN(Cc1ccc2ccccc2c1)C(=O)OCc1ccccc1)NO [Compound 220a, N-Hydroxy-6-N-(Benzyloxycarbonyl-2-naphthylmethylamino)hexanamide], the IC50 was 20 nM.
Nc1ccccc1NC(=O)CCCCCN1C(=O)c2cc(Cl)c(Cl)cc2C1=O [Compound 243f, N-(2-Aminophenyl)-6-(5,6-dichloro-N-phthaloyl)hexanamide] showed an IC50 of 3000 nM.
O=C(CCCCCCC(=O)c1cc2ccccc2[nH]1)NO [Compound 100, N-Hydroxy-7-[2-(indolyl)carbonyl]heptanamide] showed an IC50 of 4000 nM.
In the case of Nc1ccccc1NC(=O)CCCCS(=O)(=O)CC(=O)c1ccc2ccccc2c1 [Compound 230a, N-(2-Aminophenyl)-5-(2-naphthoylmethylsulfonyl)pentanamide], the IC50 is reported as 5000 nM.
Work on Nc1ccccc1NC(=O)CCCCCN1C(=O)c2cc(O)c(CN3CCCCC3)cc2C1=O [Compound 243h, N-(2-Aminophenyl)-6-(5-hydroxy-6-(1-methylpiperidinyl)-N-phthaloyl)-hexanamide] yielded an IC50 of 3000 nM.
Molecule Nc1ccccc1NC(=O)CCCCCCCC(=O)c1ccc(-c2ccccc2)cc1 [Compound 130, N-(2-Aminophenyl)-8[(4-biphenyl)carbonyl]octanamide] has an IC50 of 3000 nM.
For Nc1ccccc1NC(=O)CCCCCN1C(=O)c2ccc(O)cc2C1=O [Compound 243g, N-(2-Aminophenyl)-6-(5-hydroxy-N-phthaloyl)hexanamide], the IC50 was 3000 nM.
O=C(CCCCCCC(=O)c1ccc(NCc2cccnc2)cc1)NO [Compound 138f, N-Hydroxy-7-[4(N-3-aminomethylpyridyl)benzoyl]heptanamide] was tested, and the IC50 was 20 nM.
With CC(CCCCC(=O)c1ccc2ccccc2c1)CC(=O)Nc1ccccc1N (centres unmarked) [Compound 198, (Z)-N-(2-Aminophenyl)-3-methyl-7-(2-naphthoyl)heptanamide] the IC50 was 16000 nM.
Nc1ccccc1NC(=O)CCCCSCC(=O)c1ccc2ccccc2c1 [Compound 227a, N-(2-Aminophenyl)-5-(2-naphthoylmethylsulfanyl)pentanamide] was tested, and the IC50 was 3000 nM.
Work on Nc1ccccc1NC(=O)CCCCSCC(=O)c1ccc(-c2ccccc2)cc1 [Compound 227b, N-(2-Aminophenyl)-5-(4-biphenylcarbonylmethanesulfanyl)pentanamide] yielded an IC50 of 3000 nM.
